Data on 21 molecules can be found in patent publication US8501713B2, “Drug combinations for the treatment of duchenne muscular dystrophy” (Summit Corporation PLC, priority 2007, dated 2013).

The assay relates to Utrophin A promoter linked to a luciferase reporter gene. Nature of the assay: Luciferase reporter assay (murine H2K cells). Format: cell-based. The following applies: luciferase level relative to control, H2K/mdx/Utro A reporter cells, compound 10 μM final concentration; for activity at 10 µM: Mus musculus, H2K mdx, read-out: Activity. As for the experimental part: 1. Luciferase Reporter Assay (Murine H2K Cells)
The cell line used for the screen is an immortalized mdx mouse H2K cell line that has been stably transfected with a plasmid containing […] fragment of the Utrophin A promoter including the first untranslated exon linked to a luciferase reporter gene. Under conditions of low temperature and interferon containing media, the cells remain as myoblasts. These are plated into 96 well plates and cultured in the presence of compound for three days. The level of luciferase is then determined by cell lysis and reading of the light output from the expressed luciferase gene utilising a plate luminometer.
H2K/mdx/Utro A reporter Cell Line Maintenance
The cells were grown at 33° C. in the presence of 10% CO2. To remove the myoblasts for platting, they were incubated with Trypsin EDTA until the monolayer started to detach.
The plates were then incubated at 33° C. in the presence of 10% CO2 for 24 hrs. Compounds were dosed by adding 10 μl of diluted compound to each well giving a final concentration of 10 μM. The plates were then incubated for a further 48 hrs. Cells were then lysed in situ following the manufacture's protocols (Promega Steady-Glo Luciferase Assay System (E2520). Then counted for 10 seconds using a plate luminometer (Victor1420).
Compounds for screening were stored at −20° C. as 10 mM stocks in 100% DMSO until required.
Biological activity as assessed using the luciferase reporter assay in murine H2K cells, and is classified as follows: […]
For orientation: In a reporter assay the amount or activity of a reporter protein is the signal.

SMILES strings stand for the structures.

For the molecule `CN(C)c1ccc(-c2nc3cc(NC(=O)c4ccncc4)ccc3o2)cc1` [Example 1, N-(2-(4-(dimethylamino)phenyl)benzo[d]oxazol-5-yl)isonicotinamide], the activity at 10 µM is under 200%.

With `O=C(Nc1ccc2oc(-c3ccc(F)cc3)nc2c1)c1ccco1` [Example 2, N-(2-(4-fluorophenyl)benzo[d]oxazol-5-yl)furan-2-carboxamide], the activity at 10 µM was under 200%. On the same count and under the same terms, with `Cn1c(COc2ccc(Cl)cc2)nc2ccccc21` [Example 3, 2-((4-chlorophenoxy)methyl)-1-methyl-1H-benzo[d]imidazole] the figure was 301 to 400%.

Take `COc1ccc(OCc2nc3ccccc3[nH]2)cc1` [Example 4, 2-((4-methoxyphenoxy)methyl)-1H-benzo[d]imidazole]: the activity at 10 µM is 201 to 300%. On the same count and under the same terms, with `O=C(c1ccccc1)c1ccc2nc(-c3ccccc3)[nH]c2c1` [Example 5, phenyl(2-phenyl-1H-benzo[d]imidazol-6-yl)methanone] the figure was under 200%; with `O=C(Nc1ccc2oc(-c3ccccc3)nc2c1)c1cccnc1` [Example 6, N-(2-phenylbenzo[d]oxazol-5-yl)nicotinamide], under 200%; with `O=C(CCc1ccccc1)Nc1ccc2oc(-c3ccccc3)nc2c1` [Example 7, 3-phenyl-N-(2-phenylbenzo[d]oxazol-5-yl)propanamide], under 200%.

Consider `CC(=O)Nc1ccc2oc(-c3ccccc3)nc2c1` [Example 8, N-(2-phenylbenzo[d]oxazol-5-yl)acetamide], for which the activity at 10 µM was in the range of 201 to 300%. The same measure, in the same setting: with `CCC(=O)Nc1ccc2oc(-c3ccccc3)nc2c1` [Example 9, N-(2-phenylbenzo[d]oxazol-5-yl)propionamide] the figure was 201 to 300%. On the same count and under the same terms, with `CCCC(=O)Nc1ccc2oc(-c3ccccc3)nc2c1` [Example 10, N-(2-phenylbenzo[d]oxazol-5-yl)butyramide] the figure was 301 to 400%; with `CCCCC(=O)Nc1ccc2oc(-c3ccccc3)nc2c1` [Example 11, N-(2-phenylbenzo[d]oxazol-5-yl)pentanamide], 201 to 300%; with `CC(C)C(=O)Nc1ccc2oc(-c3ccccc3)nc2c1` [Example 12, N-(2-phenylbenzo[d]oxazol-5-yl)isobutyramide], 201 to 300%. On to `O=C(Nc1ccc2oc(-c3ccccc3)nc2c1)c1ccco1` [Example 13, N-(2-phenylbenzo[d]oxazol-5-yl)furan-2-carboxamide], for which the activity at 10 µM fell in the range of 201 to 300%. The same measure, in the same setting: with `Nc1ccc2oc(-c3ccccc3)nc2c1` [Example 14, 2-phenylbenzo[d]oxazol-5-amine] the figure was 301 to 400%. Same read-out and setting: with `Nc1ccc2oc(-c3ccc(C(F)(F)F)cc3)nc2c1` [Example 15, 2-(4-(trifluoromethyl)phenyl)benzo[d]oxazol-5-amine] the figure was under 200%; with `CCN(CC)c1ccc(-c2nc3cc(N)ccc3o2)cc1` [Example 16, 2-(4-(diethylamino)phenyl)benzo[d]oxazol-5-amine], 201 to 300%.

Consider `CCN(CC)c1ccc(-c2nc3cc(N)ccc3o2)cc1` [Example 17, 2-(4-(diethylamino)phenyl)benzo[d]oxazol-5-amine], for which the Activity entry is given as “+ (Up to 200% relative to control)”. `Cc1ccc(-c2nc3cc(N)ccc3o2)cc1` [Example 18, 2-p-tolylbenzo[d]oxazol-5-amine]: the activity at 10 µM was under 200%.

As for `Cc1ccc(-c2nc3cc(NC(=O)c4ccc(Cl)cc4)ccc3o2)cc1` [Example 19, 4-chloro-N-(2-p-tolylbenzo[d]oxazol-5-yl)benzamide], the activity at 10 µM was under 200%. Still for that read-out and setting: with `COc1ccc(C(=O)Nc2ccc3oc(-c4ccc(C)cc4)nc3c2)cc1` [Example 20, 4-methoxy-N-(2-p-tolylbenzo[d]oxazol-5-yl)benzamide] the figure was under 200%; with `O=[N+]([O-])c1ccc2oc(-c3ccccc3O)nc2c1` [Example 21, 2-(5-nitrobenzo[d]oxazol-2-yl)phenol], under 200%.
